# Laboratory results: ChEMBL document CHEMBL2439975, “Aminopropyl carbazole analogues as potent enhancers of neurogenesis” (Bioorg Med Chem, 2013)
# The source made the active and inactive calls. No cut-off for these calls is given here.
# Tests used:
# [1] = tested on: NSC; assay: Induction of differentiation of Sprague-Dawley rat embryo cortex NSC assessed as TUJ1-positive neurons at 5 uM after 4 days by immunostaining method relative to DMSO-treated control; format: functional
# [2] = tested on: NSC; assay: Cytotoxicity against Sprague-Dawley rat embryo cortex NSC assessed as effect on morphology at 10 uM after 4 days by DAPI-based phase-contrast microscopy relative to DMSO-treated control; format: cell-based; conditions: 96 h
# [3] = tested on: NSC; assay: Antiproliferative activity against Sprague-Dawley rat embryo cortex NSC assessed as reduction in neurosphere volume at 5 to 10 uM after 5 days by neurosphere growth assay relative to DMSO-treated control in presence of EGF and FGF2; format: functional, cell-based
# [4] = tested on: NSC; assay: Cytotoxicity against Sprague-Dawley rat embryo cortex NSC assessed as shrinkage and rounding up of cells at 20 to 50 uM after 2 days by microscopy relative to DMSO-treated control in presence of EGF and FGF2; format: cell-based; conditions: 48 h
# [5] = tested on: NSC; assay: Induction of neurogenesis of Sprague-Dawley rat embryo cortex NSC assessed as increase in beta3 tubulin mRNA expression at 5 uM after 4 days by RT-PCR method relative to DMSO-treated control; format: functional
# [6] = tested on: NSC; assay: Neuroprotective activity against Sprague-Dawley rat embryo cortex NSC assessed as reduction of bcl2 mRNA at 5 to 10 uM after 2 days by RT-PCR method relative to DMSO-treated control; format: functional, cell-based
# [7] = tested on: NSC; assay: Inhibition of astrocytogenesis of Sprague-Dawley rat embryo cortex NSC assessed as downregulation of notch1 mRNA expression after 4 days by RT-PCR method relative to DMSO-treated control; format: functional, cell-based
# [8] = tested on: NSC; assay: Induction of neurogenesis of Sprague-Dawley rat embryo cortex NSC assessed as increase in beta3 tubulin mRNA expression after 4 days by RT-PCR method relative to DMSO-treated control; format: functional, cell-based
# [9] = tested on: NSC; assay: Inhibition of astrocytogenesis of Sprague-Dawley rat embryo cortex NSC assessed as downregulation of hes1 mRNA expression after 4 days by RT-PCR method relative to DMSO-treated control; format: functional, cell-based
# [10] = tested on: NSC; assay: Neuroprotective activity against Sprague-Dawley rat embryo cortex NSC assessed as […] of bcl2 to bax at 5 to 10 uM after 2 days by RT-PCR method relative to DMSO-treated control; format: functional, cell-based
# [11] = tested on: NSC; assay: Neuroprotective activity against Sprague-Dawley rat embryo cortex NSC assessed as reduction of bax mRNA at 5 to 10 uM after 2 days by RT-PCR method relative to DMSO-treated control; format: functional, cell-based
# [12] = tested on: NSC; assay: Cytotoxicity against Sprague-Dawley rat embryo cortex NSC assessed as cell viability at 1 to 50 uM after 2 days by MTT assay relative to DMSO-treated control; format: cell-based; conditions: 48 h
# [13] = tested on: NSC; assay: Inhibition of astrocytogenesis of Sprague-Dawley rat embryo cortex NSC assessed as repression of gfap mRNA expression after 4 days by RT-PCR method relative to DMSO-treated control; format: functional, cell-based
# [14] = tested on: NSC; assay: Induction of neurogenesis of Sprague-Dawley rat embryo cortex NSC assessed as effect on morphology at 10 uM after 4 days by DAPI-based phase-contrast microscopy relative to DMSO-treated control; format: functional, cell-based
# [15] = tested on: NSC; assay: Induction of neurogenesis of Sprague-Dawley rat embryo cortex NSC assessed as increase in neuroD mRNA expression after 4 days by RT-PCR method relative to DMSO-treated control; format: functional, cell-based
# [16] = tested on: NSC; assay: Neuroprotective activity against Sprague-Dawley rat embryo cortex NSC assessed as […] of bcl2 to bax at 10 uM after 2 days by RT-PCR method relative to DMSO-treated control; format: functional, cell-based
# [17] = tested on: NSC; assay: Neuroprotective activity against Sprague-Dawley rat embryo cortex NSC assessed as reduction of bax mRNA at 10 uM after 2 days by RT-PCR method relative to DMSO-treated control; format: functional, cell-based
# [18] = tested on: NSC; assay: Neuroprotective activity against Sprague-Dawley rat embryo cortex NSC assessed as reduction of bcl2 mRNA at 10 uM after 2 days by RT-PCR method relative to DMSO-treated control; format: functional, cell-based
SMILES,fold change (FC) [1],further results
Cc1ccc(NCC(O)Cn2c3ccc(Br)cc3c3cc(Br)ccc32)cc1 (stereo not drawn),1.88,Activity [2]: Toxic
COc1cccc(N(CC(O)Cn2c3ccc(Br)cc3c3cc(Br)ccc32)C(C)=O)c1 (stereo not drawn),1.25,–
OC(CNc1ccc(Cl)cc1)Cn1c2ccc(Br)cc2c2cc(Br)ccc21 (stereo not drawn),1.29,–
COc1cccc(NC/C(Cn2c3ccc(Br)cc3c3cc(Br)ccc32)=N\O)c1,1.13,–
COc1cccc(N(Cc2ccccc2)CC(F)Cn2c3ccc(Br)cc3c3cc(Br)ccc32)c1 (stereo not drawn),0.58,–
COc1cccc(N(CC(Cn2c3ccc(Br)cc3c3cc(Br)ccc32)OC)S(=O)(=O)c2ccc(C)cc2)c1 (stereo not drawn),0.73,–
COc1cccc(N(CC(=O)Cn2c3ccc(Br)cc3c3cc(Br)ccc32)S(=O)(=O)c2ccc(C)cc2)c1,0.52,–
COc1cccc(NCC(=O)Cn2c3ccc(Br)cc3c3cc(Br)ccc32)c1,1.02,–
COc1cccc(NCC(Cn2c3ccc(Br)cc3c3cc(Br)ccc32)OC(C)=O)c1 (stereo not drawn),0.63,–
COc1cccc(NCC(Cn2c3ccc(Br)cc3c3cc(Br)ccc32)OC)c1 (stereo not drawn),0.96,–
COc1cccc(NCC(F)Cn2c3ccccc3c3cc(Br)ccc32)c1 (stereo not drawn),0.86,–
COc1cccc(NCC(O)Cn2c3ccc(Br)cc3c3cc(Br)ccc32)c1 (stereo not drawn),1.16,–
COc1cccc(N(C)CC(O)Cn2c3ccc(Br)cc3c3cc(Br)ccc32)c1 (stereo not drawn),1.42,–
OC(CNc1ccc2c(c1)OCO2)Cn1c2ccc(Br)cc2c2cc(Br)ccc21 (stereo not drawn),0.88,–
OC(CNc1ccccc1)Cn1c2ccc(Br)cc2c2cc(Br)ccc21 (stereo not drawn),1.47,–
COc1cccc(N(CC(Cn2c3ccc(Br)cc3c3cc(Br)ccc32)OC)S(=O)(=O)c2ccc([N+](=O)[O-])cc2)c1 (stereo not drawn),0.92,–
COc1cccc(NCC(F)Cn2c3ccccc3c3ccccc32)c1 (stereo not drawn),1.07,–
COc1ccc(NCC(O)Cn2c3ccc(Br)cc3c3cc(Br)ccc32)cc1 (stereo not drawn),1.17,–
COc1cccc(N(CC(O)Cn2c3ccc(Br)cc3c3cc(Br)ccc32)S(=O)(=O)c2ccc(C)cc2)c1 (stereo not drawn),1.52,Activity [3]: Active; Activity [4]: Non-toxic; fold change (FC) [5]: 1.43; Activity [6]: Active; inhibition [7]: Dose-dependent effect; Activity [8]: Dose-dependent effect; inhibition [9]: Dose-dependent effect; Activity [10]: Active; Activity [11]: Active; Activity [12]: Non-toxic; inhibition [13]: Dose-dependent effect; Activity [14]: Active; Activity [15]: Dose-dependent effect
COc1cccc(N(CC(Cn2c3ccc(Br)cc3c3cc(Br)ccc32)OC(C)=O)S(=O)(=O)c2ccc(C)cc2)c1 (stereo not drawn),0.65,–
COc1cccc(N(Cc2ccccc2)CC(O)Cn2c3ccc(Br)cc3c3cc(Br)ccc32)c1 (stereo not drawn),0.57,–
COc1cccc(NCC(F)Cn2c3ccc(Br)cc3c3cc(Br)ccc32)c1 (stereo not drawn),1.16,Activity [16]: Active; Activity [4]: Toxic; Activity [17]: inactive; Activity [12]: Non-toxic; Activity [18]: Active
COc1ccc(NCC(O)Cn2c3ccc(Br)cc3c3cc(Br)ccc32)cc1OC (stereo not drawn),1.67,fold change (FC) [5]: 1.47; Activity [2]: Toxic
COc1cccc(OCC(O)Cn2c3ccc(Br)cc3c3cc(Br)ccc32)c1 (stereo not drawn),1.12,–
COc1cccc(OCC(F)Cn2c3ccc(Br)cc3c3cc(Br)ccc32)c1 (stereo not drawn),0.87,–
COc1cccc(NCC(Cn2c3ccccc3c3ccccc32)OC(C)=O)c1 (stereo not drawn),0.39,–
COc1cccc(NCC(Cn2c3ccc(Br)cc3c3cc(Br)ccc32)OC(=O)OC(C)(C)C)c1 (stereo not drawn),1.25,–
